In one series the target is T1, hERG K+ channel (Homo sapiens, UniProt Q12809).
T1 construct: expressed in transfected cells; host or cells: CHO (Chinese hamster ovary) cells, CHOhERG
Kind of series: hERG channel inhibition assay. The format is cell-based. As to conditions: patch-clamp (voltage-clamp, whole-cell); for IC50: CHO cells expressing hERG; for IC20: human, CHO cells stably expressing hERG. The protocol:
hERG Channel Inhibition Assay
The hERG K^+ channels were cloned in humans and stably expressed in a CHO (Chinese hamster ovary) cell line. CHOhERG cells were used for patch-clamp (voltage-clamp, whole-cell) experiments. Cells were stimulated by a voltage pattern to activate hERG channels and conduct IKhERG currents (rapid delayed outward rectifier potassium current of the hERG channel). After the cells were stabilized for a few minutes, the amplitude and kinetics of IKhERG were recorded at a stimulation frequency of 0.1 Hz (6 bpm). Thereafter, the test compound was added to the preparation at increasing concentrations. For each concentration, an attempt was made to reach a steady-state effect, usually, this was achieved within 3-10 min at which time the next highest concentration was applied. The amplitude and kinetics of IKhERG are recorded in each concentration of the drug which were compared to the control values (taken as 100%). (references: Redfem W S, Carlsson L, Davis A S, Lynch W G, MacKenzie I, Palethorpe S, Siegl P K, Strang I, Sullivan A T, Wallis R, Camm A J, Hammond T G. 2003; Relationships between preclinical cardiac electrophysiology, clinical QT interval prolongation and torsade de pointes for a broad range of drugs: evidence for a provisional safety margin in drug development. Cardiovasc. Res. 58:32-45, Sanguinetti M C, Tristani-Firouzi M. 2006; hERG potassium channels and cardiac arrhythmia. Nature 440:463-469, Webster R, Leishman D, Walker D. 2002; Towards a drug concentration effect relationship for QT prolongation and torsades de pointes. Curr. Opin. Drug Discov. Devel. 5:116-26).
(In general: hERG is a cardiac potassium channel; its block is linked to QT prolongation.)

In series [1] the test system is Balb/c 3T3 mouse fibroblasts. Briefly: 3T3 in vitro phototoxicity assay. The format is cell-based. Particulars: Neutral Red uptake. An excerpt:
3T3 In Vitro Phototoxicity Assay
Phototoxicity is defined as a toxic response that is elicited after the first exposure of the skin to certain chemicals and subsequent exposure to light, or that is induced similarly by skin irradiation after systemic administration of a chemical substance. The assay used in this study is designed to detect the phototoxic potential of a chemical by using a simple in vitro cytotoxicity assay with Balb/c 3T3 mouse fibroblasts. The principle of this test is a comparison of the cytotoxicity of a chemical when tested with and without exposure to a non-toxic dose of UVA-light. Cytotoxicity is expressed as a dose dependent reduction of the growth rate of cells as determined by uptake of the vital dye Neutral Red one day after treatment.
A small amount of substance was weighed and formulated freshly in DMSO just before the start of the exposure of the cells. This stock solution or appropriate dilutions with DMSO were added to the cell suspensions to obtain the required final concentrations. All solutions were generally prepared in Eppendorf caps and discarded after use.
For this study the Neutral Red uptake (NRU) assay of Borenfreund and Puemer (Borenfreund, E, Puemer J A. Toxicity determined in vitro by morphological alterations and Neutral Red absorption. Toxicology Lett. 1985; 24:119-124) modified according to INVITTOX protocol No 78 (ERGATT/FRAME data bank of in vitro techniques in toxicology. INVITTOX PROTOCOL No 78. 3T3 NRU Phototoxicity Assay. March 1994) has been adapted to examine a possible phototoxic potential of the test item. This assay is based on the active uptake of the Neutral Red dye into the lysosomes of cultured murine fibroblasts. Because lysosomal membranes are known to be a site of action of many phototoxic compounds, this assay can provide a measure of potential for phototoxic injury.
A murine fibroblasts clone A 31 (ATCC no. CCL 163—passage No. 108) were cultured in 175 cm2 tissue culture grade flasks, containing sDMEM (Dulbecco's Minimal Essential Medium, supplemented with 10% fetal calf serum, 2 mM L-glutamine, 100 units/ml Penicillin and 100 μg/ml streptomycin) at 37° C. in a humidified atmosphere of 6% C02. Before cells approach confluence they were removed from flasks by trypsinisation. Prior to use in an assay, the cells were transferred to 96-well microtiter plates at a concentration of 1×10^4 cells/well in 100 μl volumes of sDMEM and allowed to attach for 24 h.
For incubation with murine fibroblasts, the test item was diluted in PBS/3% DMSO (detailed concentrations see in results).
Culture medium (Dulbecco's Modified Eagle Medium (DMEM), GlutaMAX (Gibco Ref 21885-025), 10% Fetal Bovine Serum (FBS) (Gibco Ref 10270-106), 100 IU/ml Penicillin and 100 μg/ml Streptomycin (Gibco Ref 15140-122)) was removed from the wells and murine fibroblasts were washed with PBS. Afterwards 100 μL of PBS/3% DMSO containing the test item was added and target cells were incubated for 1 h at 37° C. with 6% CO2.
For each test item the microtiter plates were prepared according to Table 4. “UVA plates” were exposed to approx. 5 J/cm2 UVA light, the “Dark plates” were kept in the dark and served as cytotoxicity control. Plates with chlorpromazine hydrochloride served as positive control. UV flux was measured with a UV-meter (Dr. Gröbel RM21).
Following UV irradiation, the test item was removed from the wells (one washing step with PBS) and replaced with sDMEM. Target cells were then incubated overnight at 37° C. in 6% CO2.
Each plate contained wells with cells and solvent but without test item which were either not incubated with Neutral Red solution (0% standard—S1) or were stained with Neutral Red (100% standard—S2) for calculation of the standard cell viability curve. Wells labeled with U01-U08 contained the different test item concentrations.
After the incubation the wells to be assayed were filled with 100 μL of the sDMEM containing Neutral Red. […]

The source of these data is US12157746B2, “Tetrahydro-1H-pyrazino[2,1-a]isoindolylquinoline compounds for the treatment of autoimmune disease” (F. HOFFMANN-LA ROCHE AG, priority 2018, dated 2024).

Broadly, the IC50 is the concentration at which inhibition is half-maximal. By IC20 is commonly meant the point of the concentration-response curve where the effect stands at 20%.

≈ marks a conversion by molar mass, not a printed value. Where only a bound is given, the exact number is not on record here.

T1 sequence (Q12809 whole entry): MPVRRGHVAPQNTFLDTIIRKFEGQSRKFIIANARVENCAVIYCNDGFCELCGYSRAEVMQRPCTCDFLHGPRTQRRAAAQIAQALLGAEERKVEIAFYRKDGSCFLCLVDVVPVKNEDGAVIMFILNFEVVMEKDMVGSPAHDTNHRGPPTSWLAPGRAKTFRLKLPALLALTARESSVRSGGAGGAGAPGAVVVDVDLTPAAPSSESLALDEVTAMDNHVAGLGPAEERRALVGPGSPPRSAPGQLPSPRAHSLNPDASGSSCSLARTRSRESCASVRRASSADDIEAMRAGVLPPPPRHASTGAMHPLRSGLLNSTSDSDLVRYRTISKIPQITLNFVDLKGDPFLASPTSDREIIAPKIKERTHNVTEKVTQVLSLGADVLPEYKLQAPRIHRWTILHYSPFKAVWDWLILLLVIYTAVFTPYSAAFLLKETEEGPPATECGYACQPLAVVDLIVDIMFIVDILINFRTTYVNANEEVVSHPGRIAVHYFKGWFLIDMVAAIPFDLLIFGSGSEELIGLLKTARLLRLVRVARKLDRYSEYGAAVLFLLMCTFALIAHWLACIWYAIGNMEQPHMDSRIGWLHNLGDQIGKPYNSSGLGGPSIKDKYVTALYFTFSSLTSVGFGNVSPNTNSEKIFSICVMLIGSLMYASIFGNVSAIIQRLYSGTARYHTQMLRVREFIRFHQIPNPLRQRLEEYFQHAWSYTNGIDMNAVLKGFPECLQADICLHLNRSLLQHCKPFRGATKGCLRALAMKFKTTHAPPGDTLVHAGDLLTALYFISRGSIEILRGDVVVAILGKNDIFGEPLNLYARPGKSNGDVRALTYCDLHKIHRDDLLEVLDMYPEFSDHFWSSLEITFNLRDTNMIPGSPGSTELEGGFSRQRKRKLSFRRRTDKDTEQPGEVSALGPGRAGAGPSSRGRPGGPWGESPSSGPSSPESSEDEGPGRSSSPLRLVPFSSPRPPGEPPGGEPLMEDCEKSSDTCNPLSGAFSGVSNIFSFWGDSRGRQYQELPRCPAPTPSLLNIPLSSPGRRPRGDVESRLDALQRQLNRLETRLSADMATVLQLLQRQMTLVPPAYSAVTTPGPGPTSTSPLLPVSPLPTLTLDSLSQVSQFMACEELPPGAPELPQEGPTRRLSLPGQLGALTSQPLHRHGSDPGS

For `C[C@@H]1CN(c2ccc(C#N)c3ncccc23)C[C@@H]2c3ccc(NC[C@H]4CNCCO4)cc3CN12` [Example 59, 5-[(4R,10bS)-4-methyl-8-[[(2R)-morpholin-2-yl]methylamino]-3,4,6,10b-tetrahydro-1H-pyrazino[2,1-a]isoindol-2-yl]quinoline-8-carbonitrile], at hERG K+ channel, the IC50 is greater than 20 µM and the IC20 was greater than 10 µM.
`CO[C@@H]1CNC[C@@H]1Nc1ccc2c(c1)CN1[C@H](C)CN(c3ccc(C#N)c4ncccc34)C[C@H]21` [Example 60, 5-[(4R,10bS)-8-[[(3S,4R)-4-methoxypyrrolidin-3-yl]amino]-4-methyl-3,4,6,10b-tetrahydro-1H-pyrazino[2,1-a]isoindol-2-yl]quinoline-8-carbonitrile]: at hERG K+ channel, the IC50 was greater than 20 µM and the IC20 is greater than 10 µM.
Taken in the same sequence, the figures for `CO[C@H]1CNC[C@@H]1N(C)c1ccc2c(c1)CN1[C@H](C)CN(c3ccc(C#N)c4ncccc34)C[C@H]21` [Example 64, 5-[(4R,10bS)-8-[[(3S,4S)-4-methoxypyrrolidin-3-yl]-methyl-amino]-4-methyl-3,4,6,10b-tetrahydro-1H-pyrazino[2,1-a]isoindol-2-yl]quinoline-8-carbonitrile] were greater than 20 µM and 8.5 µM.
For `C[C@@H]1CN(c2ccc(C#N)c3ncccc23)C[C@@H]2c3ccc(NCCN4CC[C@H](O)C4)cc3CN12` [Example 68, 5-[(4R,10bS)-8-[2-[(3S)-3-hydroxypyrrolidin-1-yl]ethylamino]-4-methyl-3,4,6,10b-tetrahydro-1H-pyrazino[2,1-a]isoindol-2-yl]quinoline-8-carbonitrile], in that order: greater than 20 µM and 5.6 µM.
In the case of `[2H]c1ccc2c(N3C[C@@H](C)N4Cc5cc(N6CC7(CNCCO7)C6)ccc5[C@H]4C3)ccc(C#N)c2n1` [Example 90, 5-[(4R,10bS)-4-methyl-8-(5-oxa-2,8-diazaspiro[3.5]nonan-2-yl)-3,4,6,10b-tetrahydro-1H-pyrazino[2,1-a]isoindol-2-yl]-2-deuterio-quinoline-8-carbonitrile], in series [1] (Factor=IC50(−UV)/IC50(+UV), cut-off factor >5), the Phototoxicity factor is on record as greater than 2. Moreover, the IC50 in series [1] (Mus musculus, BALB/c3T3, light or radiation study, with approx. 5 J/cm2 UVA light) was determined as 50.6 mg/L (≈ 108 µM).
As to `C[C@@H]1CN(c2ccc(C#N)c3ncccc23)C[C@@H]2c3ccc(N4C[C@H]5CNCCN5C4=O)cc3CN12` [Example 72, 5-[(4R,10bS)-8-[(8aR)-3-oxo-1,5,6,7,8,8a-hexahydroimidazo[1,5-a]pyrazin-2-yl]-4-methyl-3,4,6,10b-tetrahydro-1H-pyrazino[2,1-a]isoindol-2-yl]quinoline-8-carbonitrile], at hERG K+ channel, the IC50 is greater than 20 µM and the IC20 was greater than 10 µM.
On to `C[C@H]1CN(c2ccc(C#N)c3ncccc23)C[C@H]2c3ccc(N4CCNCC4)cc3CN12` [Example 2, 5-[(4S,10bR)-4-methyl-8-piperazin-1-yl-3,4,6,10b-tetrahydro-1H-pyrazino[2,1-a]isoindol-2-yl]quinoline-8-carbonitrile], for which, on hERG K+ channel, the 50% inhibitory concentration (IC50) was greater than 20 µM and the IC20 was greater than 10 µM.
For `C[C@@H]1CN(c2ccc(C#N)c3ncccc23)C[C@@H]2c3ccc(NCC4COCCN4)cc3CN12` (stereo partly drawn) [Example 57, 5-[(4R,10bS)-4-methyl-8-(morpholin-3-ylmethylamino)-3,4,6,10b-tetrahydro-1H-pyrazino[2,1-a]isoindol-2-yl]quinoline-8-carbonitrile], in that order: greater than 20 µM and greater than 10 µM.
